Measured values as given in PubChem BioAssay AID270 (DTP/NCI, 2004).
Several values for one entry are separate records, joined by “and”; a condition that tells them apart may be missing. Identical values can stand only once. Inconclusive results are not listed. *1 amine or outer side, *2 acyl side, *3 side chain or, on linkers, in order; H or OH if unused. Where a SMILES comes first, the peptide text is derived from it. Bridges are numbered along the chain shown (N, C = ends). Roman numbers before positions name the chains, in order. [ ]: non-standard residue; d: D form. Actinocin(1to9) = Cc1c2oc3c(C)ccc(C(=O)[*:2])c3nc-2c(C(=O)[*:1])c(N)c1=O; NMeV = CN[CH](C(=O)O)C(C)C; Sar = CNCC(=O)O

System: BDF1 mice, s.c. Lewis lung carcinoma, T/C %
Experiment: NCI In Vivo Anticancer Drug Screen. Data for tumor model Lewis Lung Carcinoma (subcutaneous) in B6D2F1 (BDF1) mice
Method in brief: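 Transplanted tumors grown in mice; compound vs vehicle dosing; endpoint survival or tumor size; ratio T/C.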

[1] = endpoint: median survival time, dose: 50.0 mg/kg/injection, schedule: Q01DX009 (ip), vehicle: Klucel (hydroxypropylcellulose) (HPC), higher = longer survival

In the case of `CC(=O)Nc1ccc(Cl)c(Cl)c1`, the T/C [1] is reported as 120 % of control and 124 % of control, the T/C (endpoint: median survival time, dose: 100.0 mg/kg/injection, schedule: Q01DX009 (ip), vehicle: Klucel (hydroxypropylcellulose) (HPC), higher = longer survival) is reported as 106 % of control and the T/C (endpoint: median survival time, dose: 200.0 mg/kg/injection, schedule: Q01DX009 (ip), vehicle: Klucel (hydroxypropylcellulose) (HPC), higher = longer survival) is reported as 98 % of control.
With `O=NN(CCCl)C(=O)Nc1ccc(I)cc1` the T/C (endpoint: median survival time, dose: 3.12 mg/kg/injection, schedule: Q01DX009 (ip), vehicle: Klucel (hydroxypropylcellulose) (HPC), higher = longer survival) was 92 % of control, the T/C (endpoint: median survival time, dose: 6.25 mg/kg/injection, schedule: Q01DX009 (ip), vehicle: Klucel (hydroxypropylcellulose) (HPC), higher = longer survival) was 97 % of control and the T/C (endpoint: median survival time, dose: 12.5 mg/kg/injection, schedule: Q01DX009 (ip), vehicle: Klucel (hydroxypropylcellulose) (HPC), higher = longer survival) was 101 % of control. The T/C [1] was 108 % of control.
With `CCC(C)C1NC(=O)C(NC(=O)c2c3nc4c(C(=O)NC5C(=O)NC(C(C)CC)C(=O)N6CCCC6C(=O)N(C)CC(=O)N(C)C(C(C)C)C(=O)OC5C)ccc(C)c4oc-3c(C)c(=O)c2N)C(C)OC(=O)C(C(C)C)N(C)C(=O)CN(C)C(=O)C2CCCN2C1=O` (stereo unspecified) (I: TIP[Sar][NMeV] / II: TIP[Sar][NMeV]; ester I:1-I:C, II:1-II:C; linker I:N-II:N via Actinocin(1to9); configuration not given here) the T/C (endpoint: median survival time, dose: 12.5 micrograms/kg/injection, schedule: Q01DX009 (ip), vehicle: water, higher = longer survival) was 112 % of control, the T/C (endpoint: median survival time, dose: 25.0 micrograms/kg/injection, schedule: Q01DX009 (ip), vehicle: water, higher = longer survival) was 109 % of control and the T/C (endpoint: median survival time, dose: 50.0 micrograms/kg/injection, schedule: Q01DX009 (ip), vehicle: water, higher = longer survival) was 115 % of control. The T/C (endpoint: median survival time, dose: 75.0 micrograms/kg/injection, schedule: Q04DX003 (ip), vehicle: water, higher = longer survival) was 105 % of control, the T/C (endpoint: median survival time, dose: 150.0 micrograms/kg/injection, schedule: Q04DX003 (ip), vehicle: water, higher = longer survival) was 111 % of control and the T/C (endpoint: median survival time, dose: 300.0 micrograms/kg/injection, schedule: Q04DX003 (ip), vehicle: water, higher = longer survival) was 116 % of control.
`C[C@]1(O)CC[C@H]2[C@@H]3CCC4=CC(=O)CC[C@]4(C)[C@@]3(F)[C@@H](O)C[C@@]21C` was tested, and the T/C (endpoint: median survival time, dose: 12.5 mg/kg/injection, schedule: Q02DX009 (ip), vehicle: Klucel (hydroxypropylcellulose) (HPC), higher = longer survival) was 103 % of control, the T/C (endpoint: median survival time, dose: 25.0 mg/kg/injection, schedule: Q02DX009 (ip), vehicle: Klucel (hydroxypropylcellulose) (HPC), higher = longer survival) was 93 % of control and the T/C (endpoint: median survival time, dose: 50.0 mg/kg/injection, schedule: Q02DX009 (ip), vehicle: Klucel (hydroxypropylcellulose) (HPC), higher = longer survival) was 87 % of control. For the same compound, the T/C (endpoint: median survival time, dose: 100.0 mg/kg/injection, schedule: Q02DX009 (ip), vehicle: Klucel (hydroxypropylcellulose) (HPC), higher = longer survival) was 109 % of control, the T/C (endpoint: median survival time, dose: 200.0 mg/kg/injection, schedule: Q02DX009 (ip), vehicle: Klucel (hydroxypropylcellulose) (HPC), higher = longer survival) was 103 % of control and the T/C (endpoint: median survival time, dose: 400.0 mg/kg/injection, schedule: Q02DX009 (ip), vehicle: Klucel (hydroxypropylcellulose) (HPC), higher = longer survival) was 96 % of control.
For `C=CCCCCCCCCC(=O)O`, the T/C (endpoint: mean tumor weight, dose: 50.0 mg/kg/injection, schedule: Q01DX011 (ip), vehicle: saline, higher = larger tumour) was 92 % of control, the T/C (endpoint: mean tumor weight, dose: 100.0 mg/kg/injection, schedule: Q01DX011 (ip), vehicle: saline, higher = larger tumour) was 91 % of control and the T/C (endpoint: mean tumor weight, dose: 200.0 mg/kg/injection, schedule: Q01DX011 (ip), vehicle: saline, higher = larger tumour) was 56 % of control. For the same compound, the T/C (endpoint: mean tumor weight, dose: 400.0 mg/kg/injection, schedule: Q01DX011 (ip), vehicle: saline, higher = larger tumour) was 84 % of control.
`O=C1OC(C(O)CO)C(O)=C1O` (stereo unspecified) was tested, and the T/C (endpoint: median survival time, dose: 1.0 mg/kg/injection, schedule: Q02DX009 (ip), vehicle: saline, higher = longer survival) was 113 % of control, the T/C (endpoint: median survival time, dose: 1000.0 mg/kg/injection, schedule: Q02DX009 (ip), vehicle: saline, higher = longer survival) was 87 % of control and the T/C (endpoint: median survival time, dose: 10000.0 mg/kg/injection, schedule: Q02DX009 (ip), vehicle: saline, higher = longer survival) was 10 % of control.
